The values below are quoted from earlier work in US20150045432A1, “DIETARY SUPPLEMENT COMPRISING AMINO ACIDS IN A PALATABLE LIQUID FORMULATION THAT PROMOTES RESTFUL SLEEP, RECOVERY FROM STRESS AND EXERCISE AND STRENGTHENS THE IMMUNE SYSTEM” (North Health Essentials, LLC, priority 2013, published 2015).

The conditions of data set [1]: taken within an hour before going to bed, versus those who did not take the amino acid.
For data set [2] the following is noted: rats.
The conditions of data set [3]: 3 grams of glycine, bolus before bedtime.
[4] abbreviates: after 60 minutes of administration, compared to water or L-threonine.

Turning to `NCC(=O)O` [glycine], the “brainwave patterns of non-REM sleep and sleep length” value in data set [1] was “showed brainwave patterns associated with non-REM sleep sooner and slept longer”. In addition, in data set [2], the “distribution in the brain” value is given as “accumulates in the pineal gland”. In data set [3], the daytime sleepiness result is reported as “lessened daytime sleepiness”; the “sleep quality and efficacy” value was “improved sleep quality and efficacy”.

In the case of `NCCCC(=O)O` [GABA, gamma-aminobutyric acid], under setting [4], the alpha waves result was “significantly increases alpha waves” and the beta waves result is “decreases beta waves”. Besides, the “immunity under stress conditions” value (in vivo) is “could enhance immunity”. Also, the “time after administration within which relaxant effects could be seen” value (induce relaxation and diminish anxiety) was at most 1 h.
